Results reported in ChEMBL document CHEMBL4715896, “A styrylpyrone dimer isolated from Aniba heringeri causes apoptosis in MDA-MB-231 triple-negative breast cancer cells” (Bioorg Med Chem, 2021).
Blank lines part the entries; values can stand above or below the compound they belong to. Activity calls are given as the source filed them. No cut-off for these calls is given here.

What was measured:
PC-3 = assay: Growth inhibition of human PC3 cells incubated for 48 hrs by sulforhodamine B assay; assay type: functional
[1] = Selectivity index, ratio of GI50 for cytotoxicity against mouse NIH/3T3 cells to GI50 for human MCF7 cells; assay type: toxicity, cell-based; details: NIH/3T3 cells and MCF7 cells, read-out: RatioGI50
[2] = Selectivity index, ratio of GI50 for cytotoxicity against mouse NIH/3T3 cells to GI50 for human HT-29 cells; assay type: toxicity, cell-based; details: NIH/3T3 cells and HT-29 cells, read-out: RatioGI50
[3] = Selectivity index, ratio of GI50 for cytotoxicity against mouse NIH/3T3 cells to GI50 for human MDA-MB-231 cells; assay type: toxicity, cell-based; details: NIH/3T3 cells and MDA-MB-231 cells, read-out: RatioGI50
[4] = Cytotoxicity against mouse NIH/3T3 cells assessed as growth inhibition after 48 hrs by SRB assay; assay type: cell-based, NIH3T3
[5] = Selectivity index, ratio of GI50 for cytotoxicity against mouse NIH/3T3 cells to GI50 for human 786-0 cells
[6] = Selectivity index, ratio of GI50 for cytotoxicity against mouse NIH/3T3 cells to GI50 for human PC3 cells; assay type: toxicity, cell-based; details: NIH/3T3 cells and PC3 cells, read-out: RatioGI50
MCF7 = assay: Growth inhibition of human MCF7 cells incubated for 48 hrs by sulforhodamine B assay; assay type: functional
HT-29 = assay: Growth inhibition of human HT-29 cells incubated for 48 hrs by sulforhodamine B assay; assay type: functional
786-0 = assay: Growth inhibition of human 786-0 cells incubated for 48 hrs by sulforhodamine B assay; assay type: functional
MDA-MB-231 [7] = assay: Growth inhibition of human MDA-MB-231 cells incubated for 48 hrs by sulforhodamine B assay; assay type: functional
MDA-MB-231 [8] = assay: Induction of apoptosis in human MDA-MB-231 cells assessed as reduction in bcl2 gene expression at 63 uM after 48 hrs by RT-qPCR analysis; assay type: functional, cell-based
MDA-MB-231 [9] = assay: Induction of apoptosis in human MDA-MB-231 cells assessed as activation of caspase-3 at 63 uM after 48 hrs by flow cytometry; assay type: functional, cell-based
MDA-MB-231 [10] = assay: Induction of apoptosis in human MDA-MB-231 cells assessed as formation of apoptotic bodies after 72 hrs by Hoechst 33342 staining based analysis relative to control; assay type: functional
MDA-MB-231 [11] = assay: Induction of morphological changes in human MDA-MB-231 cells assessed as proliferation arrest at 4.4 uM after 48 hrs by acridine orange/ethidium bromide double staining-based fluorescence/phase contrast microscopic analysis; assay type: functional, cell-based
MDA-MB-231 [12] = assay: Induction of morphological changes in human MDA-MB-231 cells assessed as reduction in number of cells at 63 uM after 72 hrs by acridine orange/ethidium bromide double staining-based fluorescence/phase contrast microscopic analysis; assay type: functional, cell-based
MDA-MB-231 [13] = assay: Induction of morphological changes in human MDA-MB-231 cells assessed as reduction in cell contact at 4.4 uM after 48 hrs by acridine orange/ethidium bromide double staining-based fluorescence/phase contrast microscopic analysis; assay type: functional
MDA-MB-231 [14] = assay: Induction of apoptosis in human MDA-MB-231 cells assessed as apoptotic cells at 63 uM after 72 hrs by Annexin-V/7-AAD staining based flow cytometry relative to control; assay type: functional
MDA-MB-231 [15] = assay: Induction of apoptosis in human MDA-MB-231 cells assessed as appearance of apoptotic bodies at 63 uM after 48 hrs by acridine orange/ethidium bromide double staining-based fluorescence/phase contrast microscopic analysis; assay type: functional, cell-based
MDA-MB-231 [16] = assay: Induction of apoptosis in human MDA-MB-231 cells assessed as necrotic cells at 63 uM after 72 hrs by Annexin-V/7-AAD staining based flow cytometry relative to control; assay type: functional
MDA-MB-231 [17] = assay: Induction of apoptosis in human MDA-MB-231 cells assessed as late apoptotic cells at 63 uM after 48 hrs by Annexin-V/7-AAD staining based flow cytometry relative to control; assay type: functional
MDA-MB-231 [18] = assay: Induction of apoptosis in human MDA-MB-231 cells assessed as apoptotic cells at 63 uM after 48 hrs by Annexin-V/7-AAD staining based flow cytometry relative to control; assay type: functional
MDA-MB-231 [19] = assay: Induction of apoptosis in human MDA-MB-231 cells assessed as activation of caspase-3 at 63 uM after 72 hrs by flow cytometry relative to untreated control; assay type: functional
MDA-MB-231 [20] = assay: Induction of morphological changes in human MDA-MB-231 cells assessed as formation of coarse clusters at 4.4 uM after 72 hrs by acridine orange/ethidium bromide double staining-based fluorescence/phase contrast microscopic analysis; assay type: functional, cell-based
MDA-MB-231 [21] = assay: Induction of apoptosis in human MDA-MB-231 cells assessed as effect on BIRC5 mRNA expression at 63 uM after 48 hrs by RT-qPCR analysis; assay type: functional, cell-based
MDA-MB-231 [22] = assay: Induction of morphological changes in human MDA-MB-231 cells assessed as reduction in number of cells at 63 uM after 48 hrs by acridine orange/ethidium bromide double staining-based fluorescence/phase contrast microscopic analysis; assay type: functional, cell-based
MDA-MB-231 [23] = assay: Induction of morphological changes in human MDA-MB-231 cells assessed as cells with irregular shape at 63 uM after 72 hrs by acridine orange/ethidium bromide double staining-based fluorescence/phase contrast microscopic analysis; assay type: functional, cell-based
MDA-MB-231 [24] = assay: Induction of apoptosis in human MDA-MB-231 cells assessed as late apoptotic cells at 63 uM after 72 hrs by Annexin-V/7-AAD staining based flow cytometry relative to control; assay type: functional
MDA-MB-231 [25] = assay: Induction of apoptosis in human MDA-MB-231 cells assessed as formation of apoptotic bodies after 48 hrs by Hoechst 33342 staining based analysis relative to control; assay type: functional
MDA-MB-231 [26] = assay: Induction of morphological changes in human MDA-MB-231 cells assessed as loss of cell adhesion at 63 uM after 72 hrs by acridine orange/ethidium bromide double staining-based fluorescence/phase contrast microscopic analysis; assay type: functional
MDA-MB-231 [27] = assay: Induction of apoptosis in human MDA-MB-231 cells assessed as necrotic cells at 63 uM after 48 hrs by Annexin-V/7-AAD staining based flow cytometry relative to control; assay type: functional
MDA-MB-231 [28] = assay: Induction of apoptosis in human MDA-MB-231 cells assessed as viable cells at 63 uM after 72 hrs by Annexin-V/7-AAD staining based flow cytometry relative to control; assay type: functional; details: read-out: Activity
MDA-MB-231 [29] = assay: Induction of apoptosis in human MDA-MB-231 cells assessed as chromatin condensation at 63 uM after 48 hrs by acridine orange/ethidium bromide double staining-based fluorescence/phase contrast microscopic analysis; assay type: functional, cell-based
MDA-MB-231 [30] = assay: Induction of apoptosis in human MDA-MB-231 cells assessed as appearance of apoptotic bodies at 63 uM after 72 hrs by acridine orange/ethidium bromide double staining-based fluorescence/phase contrast microscopic analysis; assay type: functional, cell-based
MDA-MB-231 [31] = assay: Induction of apoptosis in human MDA-MB-231 cells assessed as nuclei fragmentation at 63 uM after 72 hrs by acridine orange/ethidium bromide double staining-based fluorescence/phase contrast microscopic analysis; assay type: functional, cell-based
MDA-MB-231 [32] = assay: Induction of morphological changes in human MDA-MB-231 cells assessed as loss of cell cell interaction at 63 uM after 72 hrs by acridine orange/ethidium bromide double staining-based fluorescence/phase contrast microscopic analysis; assay type: functional
MDA-MB-231 [33] = assay: Induction of apoptosis in human MDA-MB-231 cells assessed as increase in Bax/Bcl2 gene expression at 63 uM after 48 hrs by RT-qPCR analysis; assay type: functional, cell-based
MDA-MB-231 [34] = assay: Induction of apoptosis in human MDA-MB-231 cells assessed as chromatin condensation at 63 uM after 72 hrs by acridine orange/ethidium bromide double staining-based fluorescence/phase contrast microscopic analysis; assay type: functional, cell-based
MDA-MB-231 [35] = assay: Induction of morphological changes in human MDA-MB-231 cells assessed as formation of atypical cell clusters at 4.4 uM after 72 hrs by acridine orange/ethidium bromide double staining-based fluorescence/phase contrast microscopic analysis; assay type: functional
MDA-MB-231 [36] = assay: Induction of apoptosis in human MDA-MB-231 cells assessed as increase in Bax gene expression at 63 uM after 48 hrs by RT-qPCR analysis; assay type: functional, cell-based
MDA-MB-231 [37] = assay: Induction of apoptosis in human MDA-MB-231 cells assessed as viable cells at 63 uM after 48 hrs by Annexin-V/7-AAD staining based flow cytometry relative to control; assay type: functional; details: read-out: Activity
MDA-MB-231 [38] = assay: Induction of morphological changes in human MDA-MB-231 cells assessed as reduction in cytoplasmic extension at 4.4 uM after 48 hrs by acridine orange/ethidium bromide double staining-based fluorescence/phase contrast microscopic analysis; assay type: functional, cell-based
MDA-MB-231 [39] = assay: Induction of apoptosis in human MDA-MB-231 cells assessed as nuclei fragmentation at 63 uM after 48 hrs by acridine orange/ethidium bromide double staining-based fluorescence/phase contrast microscopic analysis; assay type: functional, cell-based
MDA-MB-231 [40] = assay: Induction of morphological changes in human MDA-MB-231 cells assessed as loss of elongated spindle morphology at 4.4 uM after 48 hrs by acridine orange/ethidium bromide double staining-based fluorescence/phase contrast microscopic analysis; assay type: functional, cell-based

GI50 (PC-3): 96.3 µM
GI50 (MCF7): 12.2 µM
GI50 (HT-29): 88.7 µM
GI50 (786-0): 567 µM
GI50 (MDA-MB-231 [7]): 34.2 µM
Compound: O=c1cccc([C@H]2[C@H](c3ccccc3)[C@H](c3cccc(=O)o3)[C@H]2c2ccccc2)o1
selectivity ratio at 48 h [1]: 41.1
selectivity ratio [2]: 5.67
selectivity ratio at 48 h [3]: 14.7
GI50 at 48 h [4]: 503 µM
RatioGI50 [5]: 0.88
selectivity ratio [6]: 5.22

GI50 (PC-3): 90.4 µM
GI50 (MCF7): 107 µM
GI50 (HT-29): 145 µM
GI50 (786-0): 176 µM
GI50 (MDA-MB-231 [7]): 98 µM
Compound: O=c1cccc(/C=C/c2ccccc2)o1
selectivity ratio at 48 h [1]: 11.8
selectivity ratio [2]: 8.73
selectivity ratio at 48 h [3]: 12.9
GI50 at 48 h [4]: 1270 µM
RatioGI50 [5]: 7.24
selectivity ratio [6]: 14

GI50 (PC-3): 69.5 µM
GI50 (MCF7): 50.2 µM
GI50 (HT-29): 69.7 µM
GI50 (786-0): 61.7 µM
GI50 (MDA-MB-231 [7]): 4.42 µM
Compound: O=C1C=C[C@@H]2[C@H](c3ccccc3)[C@@H](c3cccc(=O)o3)[C@]2(/C=C/c2ccccc2)O1
Activity (MDA-MB-231 [8]): inactive
Activity (MDA-MB-231 [9]): Active
Activity (MDA-MB-231 [10]): 33%
Activity (MDA-MB-231 [11]): Active
Activity (MDA-MB-231 [12]): Active
Activity (MDA-MB-231 [13]): Active
Activity (MDA-MB-231 [14]): 11%
Activity (MDA-MB-231 [15]): Active
Activity (MDA-MB-231 [16]): 5%
selectivity ratio at 48 h [1]: 3.14
selectivity ratio [2]: 2.26
Activity (MDA-MB-231 [17]): 13%
Activity (MDA-MB-231 [18]): 17%
fold change (FC) (MDA-MB-231 [19]): 4
Activity (MDA-MB-231 [20]): Active
selectivity ratio at 48 h [3]: 35.7
Activity (MDA-MB-231 [21]): Active
GI50 at 48 h [4]: 158 µM
Activity (MDA-MB-231 [22]): Active
Activity (MDA-MB-231 [23]): Active
Activity (MDA-MB-231 [24]): 37%
Activity (MDA-MB-231 [25]): 56%
RatioGI50 [5]: 2.55
Activity (MDA-MB-231 [26]): Active
Activity (MDA-MB-231 [27]): 2%
selectivity ratio [6]: 2.27
viability at 63 µM (MDA-MB-231 [28]): 50%
Activity (MDA-MB-231 [29]): Active
Activity (MDA-MB-231 [30]): Active
Activity (MDA-MB-231 [31]): Active
Activity (MDA-MB-231 [32]): Active
Activity (MDA-MB-231 [33]): Active
Activity (MDA-MB-231 [34]): Active
Activity (MDA-MB-231 [35]): Active
Activity (MDA-MB-231 [36]): Active
viability at 63 µM (MDA-MB-231 [37]): 28.4%
Activity (MDA-MB-231 [38]): Active
Activity (MDA-MB-231 [39]): Active
Activity (MDA-MB-231 [40]): Active

GI50 (PC-3): 0.24 µM
GI50 (MCF7): 0.25 µM
GI50 (HT-29): 0.28 µM
GI50 (786-0): 0.16 µM
GI50 (MDA-MB-231 [7]): 1.84 µM
Compound: COc1cccc2c1C(=O)c1c(O)c3c(c(O)c1C2=O)C[C@@](O)(C(=O)CO)C[C@@H]3O[C@H]1C[C@H](N)[C@H](O)[C@H](C)O1 [DOXORUBICIN]
GI50 at 48 h [4]: 0.28 µM
